# Test results published in the METLIN SMRT retention time set (Domingo-Almenara et al. 2019).
# Assay: gradient 5% acetonitrile 3 min, to 50% in 2 min, to 85% in 15 min, held 3 min, 100 µL/min
# Settings: column: Zorbax Extend-C18 2.1 x 50 mm; eluents: water / acetonitrile, 0.1% formic acid
# Procedure, shortened: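 Using water and acetonitrile that each contained 0.1% formic acid, mixtures of ~100 pure standards were separated at 100 μL/min on a Zorbax Extend-C18 column (2.1 × 50 mm, 1.8 μm). The HPLC fed a quadrupole time-of-flight mass spectrometer working in positive and negative ionization mode, with dead and dwell volumes of 40 μL and 900 μL. Data were acquired over 3 months. Retention time was read from computationally picked adduct peaks after manual inspection of each.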
row,Compound,RP-LC retention time [s]
1,CCN(c1ccccc1)S(=O)(=O)c1cc(-c2[nH]ncc2C(=O)N2CCCC2)oc1C,781
2,O=C(NCc1cccc(C(F)(F)F)c1)C1CCCN(c2cnc3nccnc3c2)C1 (centres undefined),754
3,CCCOC(=O)c1cccc(Nc2nc(C(=O)OCC)nc3ccccc23)c1,955
4,CCn1nccc1-c1cccc(-c2noc(-c3cccnc3Cl)n2)c1,1040
5,Cn1cc2c3c(cccc31)CN(C(=O)c1ccc(C#N)cc1)CC2,884
6,CNC(=O)c1cc(=O)[nH]c2ccccc12,580
7,CCCn1c(=O)sc2cc(S(=O)(=O)N3CCC(C(=O)NCC4CCCO4)CC3)ccc21 (centres undefined),763
8,CCc1noc(-c2cccn2CC#N)n1,824
9,COc1ccc(Cn2nnc(C(=O)NCc3ccco3)c2-n2cccc2)cc1,925
10,O=C(C1=CN(c2ccc3c(c2)OCO3)c2ccccc2S1(=O)=O)N1CCCCC1,780
11,Cc1ccccc1N1CCN(S(=O)(=O)c2cc3n(c2)CCCNC3=O)CC1,788
12,NC(=O)c1ccc(NC(=O)C2CCN(c3cc(N4CCCCC4)ncn3)CC2)cc1,595
13,O=C(CNC(=O)c1ccc(F)c(F)c1)Nc1nc2ccccc2[nH]1,632
14,CCn1cc2c(n1)c(=O)n(Cc1ccccc1)c(=O)n2CC(=O)NCc1ccccc1Br,890
15,CCS(=O)(=O)N1CCCC(n2c(C)cnc2-c2ccncc2)C1 (centres undefined),565
16,Cc1cc(F)ccc1NC(=O)C1CCc2nc(N3CCOCC3)ncc2C1 (centres undefined),735
17,O=C(C1CCCN(c2nnc(-n3cccc3)s2)C1)N1CCN(c2ccc(F)cc2)CC1 (centres undefined),950
18,O=C(Cc1cccs1)N1CCc2c([nH]c3ccccc23)C1c1ccccc1 (centres undefined),1130
19,O=C(CCC(=O)N1CC2CCCN2c2ccccc21)NCCCN1CCCC1 (centres undefined),627
20,Cc1ccc(OCC(O)CN2CCN(CC(O)COC(C)C)CC2)c(C(C)(C)C)c1 (centres undefined),607
21,O=C(c1cn2cc(Cl)ccc2n1)N1CCN(c2ccccc2F)CC1,833
22,CCc1ccc(NS(=O)(=O)c2cc(-c3[nH]ncc3C(=O)N3CCOCC3)oc2C)cc1,721
23,CC(C)CC(=O)N1CC(c2nc(-c3ccc(F)cc3)no2)C2(CCOCC2)C1 (centres undefined),926

row,Compound,RP-LC retention time [s]
1,Cc1ccc(-n2nc(N3CCN(C(=O)Nc4ccccc4)CC3)ccc2=O)cc1,780
2,Cc1ccc(F)cc1NC(=O)c1csc(-c2cn(C)c3ncccc23)n1,1130
3,Cc1nn(-c2ccccc2)c2c1N(CC(=O)NCCC1=CCCCC1)C(=O)CS2,811
4,CCN1C(=O)c2cccc3c(NC(=O)Cc4ccc(S(C)(=O)=O)cc4)ccc1c23,657
5,O=C(Nc1c(F)cccc1F)N1CCC(c2ccccc2)C1 (centres undefined),767
6,Cc1cc(C)nc(N2CCC(NC(=O)c3cccc4nccnc34)CC2)n1,650
7,Cc1ccc(C)c(NC(=O)NC2CCN(c3ccc(F)cc3)C2=O)c1 (centres undefined),842
8,Cc1cc(C)cc(NC(=O)CN2CCN(Cc3ccc(F)cc3)C(=O)C2=O)c1,798
9,CCOc1ccc(CCNC(=O)c2nc(N3CCCC3)c3ccccc3n2)cc1OCC,732
10,Cc1noc(C)c1CCC(=O)Nc1ccccc1NC(=O)c1ccsc1,720
11,Cc1ccc(-n2c(N3CCCC(C(=O)NCCC(C)C)C3)nc3ccsc3c2=O)cc1 (centres undefined),955
12,Cc1ccccc1Cn1cc(-c2ccncc2)cc1C(=O)NCC1CC1,704
13,O=C(NC1CCCCC1)C1CCc2sc(C(=O)N3CCCCC3)cc2C1 (centres undefined),891
14,O=C(NCc1cccnc1)c1ccc2c(c1)N(CC(=O)N1CCCC1)C(=O)CO2,619
15,COc1ccc(-c2oc3c(CC=C(C)C)c(OC4O[C@H](CO)[C@@H](O)[C@H](O)[C@H]4O)cc(O)c3c(=O)c2OC2O[C@@H](C)[C@H](O)[C@@H](O)[C@H]2O)cc1 (some centres undefined),669
16,Cc1ccn2cc(-c3ccc(NC(=O)c4cccc(C(F)(F)F)c4)cc3)nc2n1,716
17,Cc1ccc(C)c(NC(=O)N2CCC(N3CCN(Cc4cccc(F)c4)C(=O)C3=O)CC2)c1,767
18,CN(C)C[C@@H]1CN(Cc2ccccn2)C[C@H]1NS(=O)(=O)c1cccc(F)c1,553
19,CC(C)N1C(=O)Cc2ccccc2C1C(=O)NCc1cccs1 (centres undefined),750
20,CCc1nc2cc(-c3noc(COc4cccc(Cl)c4)n3)ccc2o1,1240
21,O=C(Cc1csc(Nc2cccc(Cl)c2)n1)NCc1cccnc1,575
22,Cc1noc(C)c1CNC(=O)c1ccc2ncccc2c1,753
23,Cc1nc(C)c(C(=O)Nc2ccc(C)c(F)c2)s1,860

row,Compound,RP-LC retention time [s]
1,COc1ccc(S(=O)(=O)CCC(=O)N2CCCC2c2nc(-c3ccc(C)cc3)no2)cc1 (centres undefined),951
2,CC(C)c1cccc(Nc2nc3ccncc3n(Cc3ccccc3)c2=O)c1,911
3,COc1ccc(OC)c(NC(=O)N(C)CCc2noc(-c3ccccc3)n2)c1,918
4,COc1ccc(S(=O)(=O)N2CCCC(C(=O)NC3CCCCCC3)C2)cc1C (centres undefined),1040
5,Cc1cccc(NC(=O)N2c3ccccc3CC2c2nc(C3CC3)no2)c1C (centres undefined),1100
6,COc1ccccc1-c1nnc(Nc2nc3ccc(SC)cc3s2)o1,830
7,COc1ccc(-c2cc3nc(C)cc(N4CCN(c5ccccn5)CC4)n3n2)cc1OC,583
8,CC(C(=O)NCCCN1CCC(N2CCCCC2)CC1)n1c(=O)c(C(F)(F)F)nc2ccccc21 (centres undefined),595
9,Cn1cnnc1C1CCCCN1C(=O)c1ccc2c(c1)OCO2 (centres undefined),618
10,Cn1c(=O)c(-c2noc(C(=O)N3CCN(c4ccccn4)CC3)n2)nn(-c2ccc(F)cc2)c1=O,666
11,CC1CN(c2nc3ccccc3nc2C(C#N)C(=O)OCc2ccccc2)CC(C)O1 (centres undefined),1140
12,Cc1nc2c(sc3nc(-c4ccccc4)ccc32)c(=O)n1CC(=O)NCc1ccc(F)cc1,994
13,Cc1c(C(=O)NCCOc2cccc(C(F)(F)F)c2)cccc1[N+](=O)[O-],893
14,COc1ccc(N2CC(C(=O)N3CC4CC3C(=O)O4)CC2=O)cc1 (centres undefined),598
15,CC(=O)Nc1cccc(NC(C)=O)n1,609
16,CCn1cc(C(=O)Nc2ccc(F)c(Cl)c2)c2cccnc21,965
17,CCc1cccc(-n2nnnc2N2CCN(C(=O)Nc3ccc(C)c(F)c3)CC2)c1,981
18,CCCn1cnc2cc(CNC(=O)c3ccc(OC)c(OC)c3)ccc21,606
19,CCN(CC)c1nc2cc(C(=O)NCC(C)C)ccc2c(=O)n1Cc1ccccc1,1090
20,O=C(NC1CC1)c1nnn(-c2ccccc2)c1-c1cccnc1,691
21,O=C1[C@H]2CN(Cc3ccc(Cl)cc3)C[C@H]2C(=O)N1CCc1ccccc1,749
22,COc1ccc(N2CCN(c3nc(C(=O)N4CCCC4)cs3)CC2)cc1,853
23,CCNC(=O)N1CCCC(c2cccc(C(=O)NCc3ccc(C)c(C)c3)c2)C1 (centres undefined),866

row,Compound,RP-LC retention time [s]
1,CSc1cccc(NC(=O)Cn2ccn3nc(-c4ccc(F)cc4)c(CO)c3c2=O)c1,877
2,CC(C)c1ccc(NC(=O)Cn2ccc3c(=O)n(C)c(=O)n(C)c32)cc1,772
3,CCOC(=O)c1ccc(NC(=O)CN2N=NC3C(=O)N(c4ccc(F)cc4)C(=O)C32)cc1 (centres undefined),812
4,CCc1ccc(NC(=O)N2CC(c3nc(C)no3)C3(CCOCC3)C2)cc1 (centres undefined),770
5,COc1ccccc1N1CCN(S(=O)(=O)c2ccc3c(c2)CCCC(=O)N3)CC1,809
6,CCCCC(=O)N1CCCN(C2=NS(=O)(=O)C(c3ccc(F)cc3)=C2C)CC1,825
7,O=C(c1nccnc1-c1nc2ccccc2s1)N1CCc2ccccc21,941
8,Cc1ccc(CNc2ccc(-c3nc(-c4ccc(F)cc4)no3)cn2)o1,1190
9,COc1ccc(C2CC(=O)c3cnc(Nc4nc(C)c5ccc(C)cc5n4)nc3C2)cc1 (centres undefined),593
10,Cc1ccc(S(=O)(=O)N2CCC3(CC2)CN(C)CC3c2noc(C3CC3)n2)cc1 (centres undefined),638
11,C=CCN1C(=O)COc2ccc(-c3nc(NC(=O)CCc4ccccc4)sc3C)cc21,1050
12,CCOc1ccc(-n2nnc(-c3nc(-c4cccc(OC)c4)cs3)c2N)cc1,1130
13,O=C(CC1CCN(C(=O)NC2CCCCC2)CC1)N1CCN(c2ccccn2)CC1,598
14,Cc1nc(-c2ccc(C(=O)NC(C)C)cc2)cs1,731
15,O=C(CC1CCCC1)N1CCN(c2nc(CN3CCCCC3)cs2)CC1,642
16,O=C(NCC(F)F)c1cc2c(s1)N(CC1CC1)CCCC2,1000
17,Cc1c(C(=O)NCC(c2cccs2)N2CCCC2)oc2ccc(Cl)cc12 (centres undefined),730
18,CCOC(=O)CCc1c(C)c2c(O)cc(O)cc2oc1=O,701
19,CC(=O)N1CCc2c([nH]c3ccccc23)C12C(=O)Nc1ccccc12 (centres undefined),721
20,Cc1ccc(CNC(=O)C2(C)CN(S(C)(=O)=O)CC(=O)N2c2ccc(F)cc2F)cc1 (centres undefined),814
